Source: patent US12514871B2, “Pegylated menaquinol compositions and methods of treatment” (Epizon Pharma, Inc., priority 2022, dated 2026)
Several values for one entry are separate records, joined by “and”; a condition that tells them apart may be missing. Equal entries are not always repeated.

Key:
[1] = Single dose oral pharmacokinetics study in male Sprague Dawley rats; assay type: in vivo, Rat; conditions: for Plasma Concentration of Menaquinone-7, Mean (comparative table): G1: Menaquinone-7 oral; for Plasma Concentration of Menaquinone-7, Mean / Plasma Concentration of Menaquinone-7, individual animals: fasted
Description: Male Sprague Dawley rats aged 8-10 weeks and weighing around 202-223 grams are used for in vivo testing. Animals are fasted overnight with free access to water. Animals are split into 4 groups G1 to G4, each group containing 3 rats. To determine the bioavailability, the test items are separately dissolved in corn oil to obtain homogenous formulations. Animals are administered with test items by oral gavage, animals of G1 received 1088 μg, G2 received 1073 μg, G3 and G4 received 1000 μg per kg body weight dose of compound Ia.1, m=9, n=7 (G1), of compound Ia.1, m=9, n=9 (G2), menaquinone-7 (G3) and menaquinone-9 (G4) respectively. The doses of Ia.1 (n=7) (G1), of Ia.1 (n=9) were adjusted for the menaquinol content. Blood samples are collected at various time points during the next 48 hours post dose.
Blood samples were collected and transferred to tubes containing K2EDTA and immediately placed on ice for plasma preparations. Plasma was prepared by centrifugation at 3500 g for 10 min, aliquots are frozen at −80° C. until analysis. Quantification of analyte in plasma is determined by LC-MS-MS analysis. Plasma PK parameters are calculated using WinNonlin software.
Approximately 5 mg of Menaquinone-7 was weighed and transferred to a graduated tube. Then 10 mL of sunflower oil was added and vortex mixed thoroughly until the test item is completely dissolved. The formulation was prepared in dark room under monochromatic light. The final strength of the formulation was 500 μg/mL. The formulation was prepared fresh before administration. […]

[2] = Clinical observations in the single dose oral pharmacokinetics study; assay type: in vivo, Rat; conditions: oral 1000 μg per kg body weight, till 48 h post dose
[3] = Single dose oral pharmacokinetics study in male Sprague Dawley rats; assay type: in vivo, Rat; conditions: for Plasma Concentration of Menaquinone-7, Mean (comparative table): G1: Menaquinone-7 oral
caspase-3 = conditions: at a concentration of 10 mcmol/L; cited from earlier work
[4] = Menaquinone-7 oral 1000 μg/kg b.w., sunflower oil
[5] = Menaquinone-7 oral 1000 μg/kg b.w., sunflower oil, N 6
[6] = Menaquinone-7 oral 1000 μg/kg b.w., sunflower oil, time 0.00 h
[7] = Menaquinone-7 oral 1000 μg/kg b.w., sunflower oil, time 0.50 h
[8] = Menaquinone-7 oral 1000 μg/kg b.w., sunflower oil, time 1.00 h
[9] = Menaquinone-7 oral 1000 μg/kg b.w., sunflower oil, time 2.00 h
[10] = Menaquinone-7 oral 1000 μg/kg b.w., sunflower oil, time 4.00 h
[11] = Menaquinone-7 oral 1000 μg/kg b.w., sunflower oil, time 6.00 h
[12] = Menaquinone-7 oral 1000 μg/kg b.w., sunflower oil, time 8.00 h
[13] = Menaquinone-7 oral 1000 μg/kg b.w., sunflower oil, time 24.00 h
[14] = Menaquinone-7 oral 1000 μg/kg b.w., sunflower oil, time 48.00 h

CC(C)=CCC/C(C)=C/CC/C(C)=C/CC/C(C)=C/CC/C(C)=C/CC/C(C)=C/CC/C(C)=C/CC1=C(C)C(=O)c2ccccc2C1=O [Menaquinone-7]
Plasma Concentration of Menaquinone-7, Mean (comparative table) ([1]; Time 0.00 h): 0.00 ng/mL
Plasma Concentration of Menaquinone-7, Mean (comparative table) ([1]; Time 0.50 h): 3 ng/mL
Plasma Concentration of Menaquinone-7, Mean (comparative table) ([1]; Time 1.00 h): 11 ng/mL
Plasma Concentration of Menaquinone-7, Mean (comparative table) ([1]; Time 2.00 h): 15 ng/mL
Plasma Concentration of Menaquinone-7, Mean (comparative table) ([1]; Time 4.00 h): 14 ng/mL
Plasma Concentration of Menaquinone-7, Mean (comparative table) ([1]; Time 6.00 h): 10 ng/mL
Plasma Concentration of Menaquinone-7, Mean (comparative table) ([1]; Time 8.00 h): 6 ng/mL
Plasma Concentration of Menaquinone-7, Mean (comparative table) ([1]; Time 48.00 h): 2 ng/mL
AUClast of Menaquinone-7 in plasma, individual animals [1, 4]: 352.16 ng·h/mL and 320.74 ng·h/mL and 166.19 ng·h/mL and 339.5 ng·h/mL and 211.72 ng·h/mL and 286.28 ng·h/mL
Cmax of Menaquinone-7 in plasma, individual animals [1, 4]: 19.84 ng/mL and 13.25 ng/mL and 24.87 ng/mL and 23.02 ng/mL and 23.47 ng/mL and 14.4 ng/mL
Half life of Menaquinone-7 in plasma, individual animals [1, 4]: 29.15 h and 30.91 h and 9.47 h and 21.96 h and 12.17 h and 35.05 h
MRTlast of Menaquinone-7 in plasma, individual animals [1, 4]: 19.94 h and 20.91 h and 8.55 h and 14.68 h and 9.02 h and 20.28 h
AUClast of Menaquinone-7 in plasma, Mean [1, 5]: 279.428 ng·h/mL and 279.43 ± 74.91 ng·h/mL
Half life of Menaquinone-7 in plasma, Mean [1, 5]: 23.118 h and 23.12 ± 10.46 h
MRTlast of Menaquinone-7 in plasma, Mean [1, 5]: 15.562 h and 15.56 ± 5.71 h
Tmax of Menaquinone-7 in plasma, Mean [1, 5]: 5.000 h and 5.00 ± 2.10 h
Plasma Concentration of Menaquinone-7, Mean [1, 6]: 0.00 ng/mL
Plasma Concentration of Menaquinone-7, individual animals [1, 6]: 0.00 ng/mL
Plasma Concentration of Menaquinone-7, Mean [1, 7]: 0.00 ng/mL
Plasma Concentration of Menaquinone-7, individual animals [1, 7]: 0.00 ng/mL
Plasma Concentration of Menaquinone-7, Mean [1, 8]: 3.23 ng/mL
Plasma Concentration of Menaquinone-7, individual animals [1, 8]: 0.00 ng/mL (2×) and 3.56 ng/mL and 5.64 ng/mL and 2.91 ng/mL and 7.26 ng/mL
Plasma Concentration of Menaquinone-7, Mean [1, 9]: 11.83 ng/mL
Plasma Concentration of Menaquinone-7, individual animals [1, 9]: 3.21 ng/mL and 3.69 ng/mL and 9.07 ng/mL and 22.74 ng/mL and 17.91 ng/mL and 14.40 ng/mL
Plasma Concentration of Menaquinone-7, Mean [1, 10]: 15.64 ng/mL
Plasma Concentration of Menaquinone-7, individual animals [1, 10]: 11.45 ng/mL and 7.00 ng/mL and 24.87 ng/mL and 154.39* ng/mL and 23.47 ng/mL and 11.40 ng/mL
Plasma Concentration of Menaquinone-7, Mean [1, 11]: 14.62 ng/mL
Plasma Concentration of Menaquinone-7, individual animals [1, 11]: 19.84 ng/mL and 5.53 ng/mL and 13.11 ng/mL and 23.02 ng/mL and 15.09 ng/mL and 11.15 ng/mL
Plasma Concentration of Menaquinone-7, Mean [1, 12]: 10.35 ng/mL
Plasma Concentration of Menaquinone-7, individual animals [1, 12]: 11.92 ng/mL and 13.25 ng/mL and 8.18 ng/mL and 8.40 ng/mL and 10.89 ng/mL and 9.43 ng/mL
Plasma Concentration of Menaquinone-7, individual animals ([1]; Menaquinone-7 oral 1000 μg/kg b.w., sunflower oil, time 12.00 h): 7.05 ng/mL and 5.90 ng/mL and 4.26 ng/mL and 10.00 ng/mL and 5.48 ng/mL and 4.87 ng/mL
Plasma Concentration of Menaquinone-7, Mean [1, 13]: 5.70 ng/mL
Plasma Concentration of Menaquinone-7, individual animals [1, 13]: 8.16 ng/mL and 9.12 ng/mL and 3.00 ng/mL and 3.96 ng/mL and 4.84 ng/mL and 5.12 ng/mL
Plasma Concentration of Menaquinone-7, Mean [1, 14]: 2.36 ng/mL
Plasma Concentration of Menaquinone-7, individual animals [1, 14]: 3.81 ng/mL and 3.03 ng/mL and 0.00 ng/mL (2×) and 2.74 ng/mL and 4.56 ng/mL
plasma exposure of Menaquinone-7 ([1]; after Menaquinone-7 administration, 1000 μg/kg body weight oral, in ng·h/mL): 279.43±74.91
Clinical Observations [2]: Rats showed no adverse clinical signs of toxicity
Plasma Concentration of Menaquinone-7, Mean (comparative table) ([3]; Time 0.25 h): 0.00 ng/mL
Plasma Concentration of Menaquinone-7, Mean (comparative table) ([3]; Time 24.00 h): 5 ng/mL
Tmax of Menaquinone-7 in plasma, individual animals [3, 4]: 6 h and 8 h and 4 h and 2 h
Cmax of Menaquinone-7 in plasma, Mean [3, 5]: 19 ng/mL and 19.808 ng/mL and 19.81 ± 4.93 ng/mL

vitamin K2 [VK2]
decrease of the activity of caspase-3 (caspase-3): 2.5 fold
